Laboratory results from the Kinase Knowledgebase extract (Sharma et al. 2016).

Tests used:
[1] = molecular target: MAPK14 (human) (UniProt Q16539); experiment: Inhibition of LPS-Induced TNF-alpha Production in Human Peripheral Blood Mononuclear Cell; conditions: pbmc
[2] = molecular target: MAPK14 (UniProt Q16539); experiment: Inhibition of MAPK14 Kinase Activity
[3] = system: MAPK14 (mice); experiment: Inhibition of LPS-Induced TNF-alpha Production in Mice; conditions: dose or concentration not given here

Sequence of MAPK14 (human) (Q16539 whole entry, looked up): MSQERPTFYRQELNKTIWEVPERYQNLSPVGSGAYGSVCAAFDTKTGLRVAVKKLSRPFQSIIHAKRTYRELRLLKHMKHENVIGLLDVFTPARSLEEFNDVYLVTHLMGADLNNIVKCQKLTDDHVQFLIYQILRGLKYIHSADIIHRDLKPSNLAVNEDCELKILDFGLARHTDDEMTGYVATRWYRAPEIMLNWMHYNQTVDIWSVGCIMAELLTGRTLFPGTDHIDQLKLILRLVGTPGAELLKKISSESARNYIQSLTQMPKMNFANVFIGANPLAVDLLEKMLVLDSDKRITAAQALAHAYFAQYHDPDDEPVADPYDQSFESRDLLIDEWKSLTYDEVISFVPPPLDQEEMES
Sequence of MAPK14 (Q16539 whole entry, looked up): as above

| Structure (SMILES) | IC50 [1] [nM] | IC50 [2] [nM] | inhibition [3] [%] |
| --- | --- | --- | --- |
| Fc1ccc(-c2[nH]c3ccc4[nH]c(Cc5ccccc5)nc4c3c2-c2ccncc2)cc1 | 60 |  |  |
| C[C@H](Nc1nccc(-c2c(-c3ccccc3)nc3nc(N)ccn23)n1)c1ccccc1 | 0.6 |  | 100 |
| C[C@@H](Nc1nccc(-c2c(-c3ccccc3)nc3nc(N)ccn23)n1)c1ccccc1 | 2.3 |  |  |
| Nc1ccn2c(-c3ccncc3)c(-c3ccc(F)cc3)nc2n1 | 40 |  |  |
| Nc1ccn2c(-c3ccnc(N[C@H]4CCCc5ccccc54)c3)c(-c3ccccc3)nc2n1 | 3 |  |  |

Now from value to compound, other results behind:

| IC50 [1] [nM] | IC50 [2] [nM] | Structure (SMILES) | inhibition [3] [%] |
| --- | --- | --- | --- |
| 2 | 1 | C[C@H](Nc1cc(-c2c(-c3ccc(F)cc3)nc3nc(N)ccn23)ccn1)c1ccccc1 |  |
| 0.5 |  | COC[C@H](C)Nc1cc(-c2c(-c3ccccc3)nc3nc(N)ccn23)ccn1 |  |
